Experiments:
3 T3-L1 preadipocytes [1] = experiment: Cell viability (MTT) in 3 T3-L1 preadipocytes; format: cell-based; conditions: 24 h, 1 to 100 μg/mL
Description: With slight modifications based on the method ([Cui et al., 2019]). MTT method was used to assess the proliferative effects of different concentrations of orlistat, SBTH and PIE on 3 T3-L1 preadipocytes. Cells were treated with different samples for 24 h. Finally, the absorbance at 490 nm was measured using a Microplate Reader (Synergy H1, BioTek, USA).

3 T3-L1 preadipocytes [2] = experiment: Cellular triglyceride content; format: cell-based; conditions: 1000 μg/mL, with Inducers I and II
Description: (§1) With minor modifications based on the method ([Lee et al., 2023]). 3 T3-L1 Preadipocytes were cultured at 37 °C and 5% CO2 until 80% fusion, passaged and differentiated. After induction with inducers for 8d, the cells were then cultured with DMEM containing 1% PS and 10% FBS for 4d.
Cellular triglyceride content (TG) was measured using a kit (JianCheng, Nanjing, China). Differentiated adipocytes were treated with different samples in 6-well plates according to the manufacturer's instructions. Cells were first washed with PBS, followed by the addition of ethanol. The cells were then transferred into centrifuge tubes using a cell scraper. Subsequently, the cells were broken down by ultrasound in an ice water bath. […] was measured using a specialized kit.

α-amylase [3] = experiment: α-amylase conformation: secondary structure content by circular dichroism; format: biochemical; conditions: 1-1000 μg/mL
Description: The effect of peptides on the secondary structure of α-amylase was analyzed by circular dichroism. α-Amylase was reacted with the following different concentrations of SBPH, SBTH, and SBNPH: 1, 10, 100, and 1000 μg/mL. The test parameters were as follows: 1 mm quartz cuvette; scanning wavelength range = 190– 250 nm; bandwidth = 2 nm; scanning speed = 100 nm/min; and response time = 1 s. α-Amylase without SBPH, SBTH, and SBNPH treatment was used as the blank control, and it was analyzed under the same conditions. The experimental results were obtained by subtracting the buffer background from the scanned data ([Zhang & Ma, 2013]).

[4] = Effect of PIE on body weight in mice; format: in vivo; conditions: 30 mg/kg by gavage, 12 weeks, female BALB/c mice
Description: The animal study was approved by the Animal Ethics Committee of Dalian Polytechnic University (protocol ID SYXK2017–0005) per the guidelines of the National Institutes of Health Laboratory Animals for Animal Care. 10-week-old female BALB/c mice (L20160258, Dalian Medical University, Liaoning, China) were acclimatized with normal chow for 2 d, and were randomly separated 2 groups (n = 8): the control group (saline) and the PIE group (at a dose of 30 mg PIE/kg body weight). Both groups were maintained on a basal diet throughout the study. Given that mice are nocturnal feeders, gavage was performed between 5:00–6:00 PM. Body weights were measured and recorded at 7-day intervals. The feed and water were provided ad libitum to mice. Changes in body weight were analyzed after 12 weeks of continuous gavage ([Pinzón-García et al., 2018]).

[5] = Ca-binding capacity (colorimetric Ca kit); conditions: 5 mg sample, 1 mL 5 mM CaCl2, 2 mL PBS 20 mM pH 7, 37 °C 1 h; ranking in words, Fig. 1C
Description: The Ca-binding capacities of SBPH, SBTH, and SBNPH were determined according to the previous study ([Choi, Jung, Choi, Kim, & Ha, 2005]). 5 mg lyophilized powder of SBPH, SBTH, and SBNPH, was mixed with 1 mL of 5 mM CaCl2 and 2 mL of phosphate-buffered saline (PBS, 20 mM, pH = 7). The mixture was stirred at 37 °C pH = 7 for 1 h, followed by centrifugation at 5000 rpm for 10 min. The calcium content in the supernatant was determined using colorimetry with Ca assay kits (JianCheng, Nanjing, China).

α-amylase [6] = experiment: α-amylase inhibition rate (DNS method, soluble starch); format: biochemical; conditions: 100 μg/mL; α-amylase 4 units/mL, PBS pH 6.9, 37 °C 10 min, 1% soluble starch 5 min, DNS 540 nm; mean, n = 3
Description: (§2) The activity of α-amylase was determined spectrophotometrically using soluble starch as the substrate and 3,5-dinitrosalicylic acid (DNS) as the chromogenic agent. α-amylase solution (4 units/mL, 0.25 mL) and 0.25 mL each of SBPH, SBTH, and SBNPH (each at 1 μg/mL, 10 μg/mL, 100 μg/mL, and 1000 μg/mL concentrations) were added to 0.5 mL of PBS (pH 6.9, 0.2 mol/L) to make test solutions. These solutions were then incubated at 37 °C for 10 min. Then, 0.5 mL of 1% soluble starch solution was added to each test solution to continue the reaction for 5 min. Thereafter, l mL of DNS reagent was added to each solution, and the mixtures were boiled for 10 min. After the dilution of five times, the absorbance value was measured at 540 nm ([Wu et al., 2019]). The inhibition of the activity of α-amylase by salmon bone hydrolysate was calculated as using the formula (1):(1) I%=[1−B−b/A−a×100% where I represents the inhibition rate of α-amylase by salmon bone hydrolysates. A represents the absorbance value of the blank tube, a represents the absorbance value of the blank control tube, B represents the absorbance value of the inhibition tube, and b represents the absorbance value of the background control tube.

[7] = ref Xu et al., 2020, 2019, 2022; cited from earlier work
α-amylase [8] = experiment: α-amylase inhibition during in vitro simulated gastrointestinal digestion; format: biochemical; conditions: 0-240 min, DNS method
Description: as §2, with “The inhibition of the activity of α-amylase by salmon bone hydrolysate was calculated as using the formula (1):(1) I%=[1−B−b/A−a×100% where I represents the inhibition rate of α-amylase by salmon bone hydrolysates.” left out
A gastrointestinal digestion simulation test was performed according to a previously reported method ([Brodkorb et al., 2019]). Samples were assessed at 0, 10, 30, 60, 90, 120, 130, 150, 180, 210, and 240 min. The inhibition rates of SBPH, SBTH, and SBNPH for α-amylase were determined by the DNS method.

3 T3-L1 preadipocytes [9] = experiment: Total cellular cholesterol content; format: cell-based; conditions: 1000 μg/mL
Description: as §1
Total cellular cholesterol content was measured using a kit (JianCheng, Nanjing, China). The […] enzymatic method was used according to the manufacturer's instructions. Protein concentration was measured using the BCA protein assay kit (Solarbio, Beijing, China).

[10] = ref Xu et al., 2020, 2019, 2022; cited from earlier work; remark: listed apart in the source
Excerpt: Peptidomics facilitates the comprehensive characterization of peptides on a large scale. This analytical approach offers a time-efficient means of generating an extensive array of peptide fragments ([Martini, Solieri, & Tagliazucchi, 2021]). Herein, the peptide sequences were retrieved from an established database using MASCOT, and active peptide sequences with Ca-binding capacities were identified. The peptide sequences from SBTH were identified in Table S1 (Supplementary materials), along with information on their amino acid sequences, lengths, and molecular weights. A total of 6505 peptide ...

α-amylase [11] = experiment: Kinetics of α-amylase inhibition (Lineweaver-Burk); format: biochemical; conditions: 37 °C
Description: The kinetics of α-amylase inhibition was performed with minor modifications as previously reported ([Cardullo et al., 2020]). In the reaction system, 1 mL of soluble starch solution (10 mg/mL) and 1 mL of different concentrations of SBPH, SBTH, and SBNPH (concentrations of 1, 10, 100, and 1000 μg/mL, respectively) were added. a temperature bath was maintained at 37 °C for 30 min. Different concentrations of α-amylase solution were added. The change in absorbance value of the system was determined. Plot the rate of enzymatic reaction versus α-amylase concentration.
To the reaction system, 1 mL of soluble starch solution of different concentrations (0, 5, 10, 15, 20, 25 mg/mL) was added. The effects of different concentrations of SBPH, SBTH and SBNPH on α-amylase activity were determined at 37 °C in a water bath. Finally, the inverse of the concentration of soluble starch solution was used as the horizontal coordinate and plotted with Lineweaver-Burk plots to determine the type of inhibition of α-amylase by SBPH, SBTH and SBNP. The general equation for reversible inhibition is given below: v=vmaxS/Km1+i/Kic+1+i/Kiu 1/v=Km+s/vmaxs+iKm/Kic+s/Kiu/vmaxs 1/v=Km/vmax1+i/Kic+s/vmax1+i/Kiu where Km is the Michaelis-menten constand (mg/mL), v denotes the initial reaction rate (U, mm/min), S denotes the substrate concentration (mg/mL), i denotes the content of the inhibitor concentration (U, mg/mL), Kic denotes the inhibitory constant of the competitive inhibitor, and Kiu denotes the inhibitory constant of the non-competitive inhibitor.

α-amylase [12] = experiment: DLS analysis of α-amylase particle size / hydrodynamic radius; format: biochemical; conditions: α-amylase 4 units/mL, substance 1-1000 μg/mL, 24 h incubation
Description: The α-amylase solution (4 units/mL) and SBPH, SBTH, and SBNPH solutions (each at 1, 10, 100, and 1000 μg/mL concentrations) were prepared. Filtration was performed using a 0.45-μm filter. The α-amylase solution was incubated with different concentrations of SBPH, SBTH, and SBNPH solutions for 24 h. Each sample (1 mL) was analyzed using the DLS apparatus. The particle size variation of α-amylase in each solution was analyzed. The α-amylase alone solution was used as a positive control under the same conditions ([Xiong et al., 2016]).

[13] = Lineweaver-Burk double inverse plots, soluble starch 0-25 mg/mL

Compound | cytotoxicity (3 T3-L1 preadipocytes [1]) | TG content reduced to (3 T3-L1 preadipocytes [2]) | change of α-amylase secondary structure with increasing concentration (α-amylase [3]) | body weight change ([4]; n = 8) | weight gain over three months ([4]; n = 8, basal diet, control group 33.65%) | calcium-binding capacity / affinity [5] | α-amylase inhibition rate (α-amylase [6]) | activity and stability in the gastrointestinal tract [7] | α-amylase inhibition rate with simulated digestion time (α-amylase [8]) | TC content decreased to (3 T3-L1 preadipocytes [9]) | calcium-binding capability [10] | KI (α-amylase [11]; [13]) | KIS (α-amylase [11]; [13]) | reversibility of α-amylase inhibition (α-amylase [11]; enzyme reaction rate against α-amylase concentration) | hydrodynamic radius of α-amylase (α-amylase [12])
CCCCCCCCCCC[C@@H](C[C@@H]1OC(=O)[C@H]1CCCCCC)OC(=O)[C@H](CC(C)C)NC=O [orlistat] | no cytotoxicity |  |  |  |  |  |  |  |  |  |  |  |  |  | 
IEELEEELEAER [PIE, Ile-Glu-Glu-Leu-Glu-Glu-Glu-Glu-Leu-Glu-Ala-Glu-Arg, peptide … from SBTH, purity 94.74%, synthesized at ChinaPeptides] |  | 52.11% | a decrease in α-helix content and an increase in β-fold structures | no significant weight change | 6.61% | greatest affinity for calcium | 58.81% | robust activity and stability within the gastrointestinal tract | the inhibition rate decreased significantly with the increasing duration of gastrointestinal digestion | 54.35% | pronounced calcium-binding capability | 3290 µg/mL | 3.97 mg/mL | reversible | increased gradually

Source: publication PMC11004067, “Identification and characterization of a calcium-binding peptide from salmon bone for the targeted inhibition of α-amylase in digestion” (Food Chemistry: X, 2024)
